Patent US11324709B2, “Fatty acid amides and uses thereof in the treatment of addiction disorder and addiction related conditions” (Yissum Research Development Company of The Hebrew …, priority 2017, dated 2022)
Where two headings read alike, the source gives them in different places.

What was measured:
[1] = system: Sprague-Dawley rats; assay: Potential of OlGly to produce a CPP or CPA (place conditioning, Experiment 1); format: in vivo, rat; conditions: 5 mg/kg ip
Method: Rats (n=12) received two conditioning trials with oleoyl glycine. On each trial they received intraperitoneal (ip) injections of 5 mg/kg oleoyl glycine or VEH (24 hr apart; counterbalanced order) 20 minutes prior to placement in the conditioning box lined with the grid or hole floor (counterbalanced) for 20 minutes.

[2] = system: Sprague-Dawley rats; assay: Establishment of naloxone precipitated MWD-induced conditioned place aversion (Experiment 2); format: in vivo, rat
Method: Rats (n=22) received two 3-day conditioning cycles in order to attain a naloxone precipitated MWD-induced place avoidance. On Day 1, the floor opposite to the assigned drug floor was paired with a s.c. saline injection. Ten minutes after a saline injection, the rats were placed into the conditioning box with the assigned saline-paired floor for 20 minutes while their locomotion was tracked with Ethovision. On Day 2, the rats received a high dose of morphine (20 mg/kg) s.c., 24 h after the saline conditioning trial the previous day. After the injection, they were placed in an empty shoebox cage and monitored for signs of respiratory distress and stimulated when necessary until they recovered and were returned to the home cage. On Day 3, 24 h post morphine injections, the rats were injected with either VEH (n=12) or OlGly (n=12) 10 min prior to receiving an s.c. injection of naloxone. Ten min later they were placed into the conditioning box with the assigned naloxone-paired floor for 20 minutes while their locomotion was tracked using Ethovision. Four days later, all rats underwent a second 3-day conditioning cycle. Five days following the last naloxone trial, a 10 min drug-free test trial was performed. The test trial consisted of the same procedures as the pre-test trial, but rats were given a s.c. saline injection 10 min prior to the test. […]

[3] = system: ICR mice; assay: Morphine CPP in mice; format: in vivo, mouse; conditions: OlGly 30 mg/kg i.p., morphine 10 mg/kg s.c. for 3 days
Method: Male C57BL/6 mice (Charles River, Italy) weighing 18-20 g were used for the mild TBI Weight Drop (WD) model. Mice were housed three per cage under controlled illumination (12 h light/dark cycle; light on 6:00 A.M.) and standard environmental conditions (ambient temperature 20-22° C., humidity 55-60%) for at least 1 week before the beginning of experiments. Animal chow and tap water were available ad libitum. Male ICR mice (6-8 weeks old; Harlan, Indianapolis, Ind.) with a body mass of 27-32 g served as subjects in all in vivo pharmacology experiments. Mice were group-housed (four per cage) on a 12/12 light/dark cycle (lights on at 0600 h) and given food and water ad libitum. All animal protocols were approved by the Virginia Commonwealth University Institutional Animal Care and Use Committee, were in accordance with the National Institutes of Health Guide for the Care and Use of Laboratory Animals (Institute of Laboratory Animal Resources, 2011), and by the Animal Ethics Committee of The Second University of Naples, in compliance with Italian (D.L. 116/92) and European Commission (O.J. of E.C. L358/1 18/12/86) regulations on the protection of laboratory animals. All efforts were made to reduce both animal numbers and suffering during the experiments. […]

[4] = system: ICR mice; assay: Cannabinoid tetrad behavioral assessment; format: in vivo, mouse; conditions: i.p.
Method: Male C57BL/6 mice (Charles River, Italy) weighing 18-20 g were used for the mild TBI Weight Drop (WD) model. Mice were housed three per cage under controlled illumination (12 h light/dark cycle; light on 6:00 A.M.) and standard environmental conditions (ambient temperature 20-22° C., humidity 55-60%) for at least 1 week before the beginning of experiments. Animal chow and tap water were available ad libitum. Male ICR mice (6-8 weeks old; Harlan, Indianapolis, Ind.) with a body mass of 27-32 g served as subjects in all in vivo pharmacology experiments. Mice were group-housed (four per cage) on a 12/12 light/dark cycle (lights on at 0600 h) and given food and water ad libitum. All animal protocols were approved by the Virginia Commonwealth University Institutional Animal Care and Use Committee, were in accordance with the National Institutes of Health Guide for the Care and Use of Laboratory Animals (Institute of Laboratory Animal Resources, 2011), and by the Animal Ethics Committee of The Second University of Naples, in compliance with Italian (D.L. 116/92) and European Commission (O.J. of E.C. L358/1 18/12/86) regulations on the protection of laboratory animals. All efforts were made to reduce both animal numbers and suffering during the experiments.
[^2H]8AEA, [^2H]52-AG, [^2H]4 PEA, [^2H]4 OEA, [^2H]8 N-arachidonoyldopamine (NADA), [^2H]8AraSer and [^2H]8AraGly were purchased from Cayman Chemicals (MI, USA). OlGly was synthetized in the Mechoulam laboratory and CP55,940 ((−)-cis-3-[2-hydroxy-4-(1,1-dimethylheptyl)phenyl]-trans-4-(3-hydroxypropyl)cyclohexanol) and morphine sulfate were generously provided by NIDA (Rockville, Md.). OlGly and CP55,940 were dissolved in a vehicle solution consisting of ethanol (5% of total volume), alkamuls-620 (Sanofi-Aventis, Bridgewater, N.J.) (5% of total volume), and saline (0.9% NaCl) (90% of total volume). Oleoyl glycine and CP55,940 were given via the intraperitoneal (i.p.) route of administration. (−)-Nicotine hydrogen tartrate [(−)-1-methyl-2-(3-pyridyl)pyrrolidine (+)-bitartrate] and mecamylamine HCl were purchased from Sigma-Aldrich Inc. (St. Louis, Mo., USA). Morphine sulfate [morphine hemi[sulfate pentahydrate]] Nicotine and mecamylamine (2 mg/kg) were dissolved in physiological saline and given via the subcutaneous (s.c.) route of administration in a volume of 10 ml/kg. For the nicotine CPP study, 0.5 mg/kg nicotine dose was used because this dose reliably produces significant CPP in ICR mouse (18). Morphine CPP was performed with 10 mg/kg (s.c.) as recently described (19). For nicotine withdrawal studies, 24 mg/kg/day nicotine or saline was continuously perfused for 14 days using s.c. osmotic minipumps (model 2000; Alzet Corporation, Cupertino, Calif.) that were implanted under isoflurane anesthesia. This prolonged nicotine administration regimen reliably produces significant withdrawal syndrome in the three behavioral paradigms used here.
Mice were acclimated to the test environment for at least 1 h prior to testing for tetrad components: spontaneous activity, catalepsy, antinociception, and hypothermia (7-9). In the locomotor studies, subjects were administered vehicle or drug and 5 min later were placed into clear acrylic boxes (approx. 44.5 cm×22.25 cm×20.0 cm) contained within sound-attenuating cabinets equipped with an LED light source and fans for general air circulation and creation of white noise. The distance traveled (cm) and time spent immobile (s) for each mouse were collected and recorded for 10 min using Fire-i™ digital cameras purchased from Unibrain (San Ramon, Calif., USA) and ANY-maze™ video tracking software purchased from Stoelting Company (Wood Dale, Ill., USA). Mice were assessed for baseline tail withdrawal latencies and body temperature, given an intraperitoneal (i.p.) injection of vehicle or drug (OlGly), and 30 min later assessed in the following order: catalepsy, tail withdrawal test, and body temperature. […]

[5] = system: Sprague-Dawley rats
[6] = system: mice; conditions: cited from earlier work
[7] = system: nicotine-dependent mice; conditions: cited from earlier work

- motoric effects during conditioning (activity measure) compared to VEH [1]: no motoric effects
- activity during the conditioning trials ([2]; pretreatment with 5 mg/kg OlGly, naloxone conditioning trials): did not modify activity
- melting point: 93 to 94 °C (dec.)
Structure (SMILES): CCCCCCCC/C=C\CCCCCCCC(=O)NCC(=O)O [OlGly, oleoyl glycine]
- time spent on the oleoyl glycine paired floor (mean) ([1]; 10 min drug-free test trial, VEH paired floor 232.16 sec): 299.00 s
- preference or aversion for the drug paired floor ([1]; two conditioning trials, drug-free test trial): did not produce a significant preference or aversion
- establishment of the naloxone precipitated MWD-induced CPA ([2]; 5 mg/kg OlGly 10 min prior to naloxone, drug by floor interaction p=0.017): significantly interfered
- expression of morphine CPP [3]: did not attenuate
- cataleptic responses (bar test) [4]: did not elicit cataleptic responses
- antinociception (tail immersion) ([4]; FIG. 5A): did not produce
- hypothermia ([4]; FIG. 5B): did not produce
- motor behavior: distance traveled ([4]; FIG. 5C): did not produce
- motor behavior: speed ([4]; FIG. 5D): did not produce
- motor behavior: immobility time ([4]; FIG. 5E): did not produce
- establishment of a morphine-induced place preference ([5]; 5 mg/kg OlGly i.p. 10 min prior to morphine 10 mg/kg s.c.): did not modify
- establishment of a morphine-induced place preference ([5]; 30 mg/kg OlGly i.p. 10 min prior to morphine 10 mg/kg s.c.): did not modify
- nicotine-induced place preference [6]: interfered
- place preference or place aversion produced by OlGly itself [6]: neither a place preference nor a place aversion
- precipitated withdrawal responses [7]: reduced
- withdrawal induced place aversion [7]: reduced
